In patent US12070463B2, “Compositions and methods for the treatment of seizure caused by brain tumor” (Board Of Supervisors Of Louisiana State University And …, priority 2015, dated 2024):
Entries after “also recorded” stand apart in the source; their conditions may differ.

Columns and labels:
[1] = system: MIP-2; assay: Hippocampal MIP-2 after neuroinflammation (LPS / post status epilepticus), bead-based immunodetection; assay type: in vivo, mice; conditions: 60 mg/kg/daily for 5 days i.p.
Protocol: MIP-2 was measured using bead-based immunodetection. Values are means±SD: *P<0.05 (two-way repeated-measures ANOVA).
MIP-2 was measured using bead-based immunodetection respectively. Diamonds: interval of confidence; diamond internal horizontal line; group mean; bar lines; standard deviation. Data represent average and bars±S.E.M; n=3 of each group. ANOVA one way, *=p<0.05.
Pro-inflammatory molecular analysis: LC-MS/MS-based mediator lipidomic analysis will be evaluated as described previously (Musto et al., 2011, Musto and Samii, 2011), chemokine analysis was performed using commercial enzyme-linked immune-absorbent assay (Rodent MAPs Myira RBM, USA), and matrix metalloproteinase (MMP) activity were investigated by gelatin zymography assay (Ramaswamy et al., 2014).

[2] = system: microglia; conditions: in vivo; cited from earlier work
[3] = system: U87MG cells; assay: Hippocampal U87MG GBM xenograft, tumor growth by in vivo bioluminescent imaging; set-up: species or system BALB/c (nu/nu) mice
Protocol: FIGS. 3A-3C illustrate that a PAF-r antagonist reduces GBM tumor size. U87MG cells were implanted in the right dorsal CA3 hippocampal region of BALB/c (nu/nu) mice. Intracranial tumor growth was quantified using Jo vivo bioluminescent imaging on days 10 and 25. Saline (vehicle) or LAU-0901 (60 mg/kg/day; i.p., n=6 in each group) was administered daily from day 10, during 5 days.
Experimental Design and Methods: PAF-r deficient and wild type mice and athymic nude mice, 6 to 8 weeks of age (Harlan Laboratories) mice were used. The xerograph GBM mouse model is representative of this tumor, which has a narrow survival window. These cells form a massive and homogenous mass from tumor-initiating cells, are localized, and invade neuronal tissue. This model is a predictor of therapeutic responses in human glioblastoma patients. U87MG cells (FIGS. 2A-3C) with a luciferase reporter gene were injected (5×10^5 cells in […] serum-free DMEM) into the right dorsal CA3 hippocampal region (coordinates: 2.5 mm lateral, 1.7 mm posterior to the bregma, and 1.5 depth) of mice (6-8 wks of age) (Marrero et al., 2014).
In vivo imaging analysis: Intracranial tumor growth was quantified by bioluminescent imaging using an in vivo imaging system and procedures as described by Marrero et al., 2014, incorporated herein by reference in its entirety.

[4] = Pentylenetetrazol (PTZ) test, locomotor seizures by modified Racine's score; assay type: in vivo, mice; conditions: single dose 60 mg/kg i.p. 2 h before PTZ 40 mg/kg i.p.; vs vehicle
Protocol: A single dose (i.p.) of a LAU compound 60 mg/kg; ip.) or vehicle (0.1 mL of sterile 0.9% sodium chloride) was administered 2 h before a single dose of pentylenetetrazol (PTZ) (40 mg/kg; i.p.). Data represent average and bars±S.E.M. t-test between vehicle and for each LAU compound: LAU0901 p<0.031; others: p<0.0001 at 60 mins. Maximum seizure levels and the percentage reduction from vehicle after PTZ injection are shown. Locomotor seizures were video recorded and quantified according to a modified Racine's score (Stage: 0 normal locomotor activity. Stage 1, behavioral arrest, Stage 2: head nodding; stage 3, facial movements and contralateral forelimb dorms).
Pentylenetetrazol test: The systemic administration of pentylenetetrazol (PTZ) in rodents, an accepted model to test the potential anti-convulsive effect (Loscher, 2011) was used to evaluate seizure susceptibility in mice with GBM cell implantation. It has been seen that systemic administration of PTZ at 35 mg/kg is useful as a sub-convulsive dose to evaluate seizures after brain damage. Animals were placed in individual Plexiglas cages (28×28×37.5 cm) and then a single dose of PTZ (Sigma, St. Louis, MO) at 35 mg/kg were administered intraperitoneally (i.p.) to each animal. Locomotor seizures were quantified according to a modified Racine's Score classified as previously described (Musto et al., 2009, 2011).

[5] = Seizure susceptibility and survival after status epilepticus (SE); assay type: in vivo, BALB/c (nu/nu) mice; conditions: 60 mg/kg i.p. daily for 5 days, 24 h after SE
Protocol: BABL/c (nu/nu) mice received compound LAU-0901 (60 mg/kg; i.p.) or saline daily for 5 days 24 h after SE.
GBM cells were implanted into PAF-r deficient or wild type mice. Lyn kinase inhibitor (Dasatinib; 0.01 mL/g) (Luo et al., 2000) or vehicle (propylene glycol/water) was administered intraperitoneally at 14 d after GBM implantation and continues for 14 d. Alternatively, BALB/c, (nu/nu) mice received LAU-0901 (60 mg/kg; i.p.) or saline daily for 5 days (n=4-5 per group) 24 h after SE. Weight, locomotion, survival rate, behavior, in vivo tumor growth, and GBM cells were analyzed.

[6] = system: Lyn kinase; assay: Phospho-Lyn in hippocampal synapsis after SE, immunohistology; assay type: in vivo, mice; conditions: hippocampus
[7] = system: dysmorphic filopodia-like spines; assay: Dysmorphic filopodia-like dendritic spines in epileptogenesis, Golgi staining; assay type: in vivo, mice; conditions: 7 days after SE
Protocol: Cyto-architecture hippocampal neurons, dendrites and dendritic spines was evaluated using rapid Golgi staining and the DIOLISTIC labeling approach, as shown in FIG. 12A. Then dendrites and dendritic spines from pyramidal cells were reconstructed, analyzed, and visualized in a 30 shape of neurons from the ipsi and contralateral hippocampal region using light and confocal microscopy, digitally-traced, mediated computational analysis.

[8] = system: MIP-2; assay: MIP-2 in mice with GBM; assay type: in vivo; conditions: compared with vehicle

| Compound | hippocampal levels of MIP-2 ([1]; LPS one week after status epilepticus, vs saline (FIG. 4)) | hippocampal levels of MIP-2 ([1]; LPS or one week after status epilepticus (PSE), vs vehicle (FIG. 20), 60 mg/kg) | microglia activation [2] | tumor size ([3]; 60 mg/kg/day i.p. for 5 days from day 10, representative images, 10 week-survival period, vs saline) | tumor size diminished compared to saline-treated group ([3]; day 25, 60 mg/kg/day i.p. for 5 days from day 10) | body weight ([3]; weeks 8 and 10, compared to saline group) | neuronal hyper-excitability (locomotor seizures after PTZ) [4] | seizure severity [5] | puncta phospho-Lyn and co-localization with pre- and post-synaptic markers [6] | average spine length for dysmorphic filopodia-like spines [7] | increases of MIP-2 [8] |
| --- | --- | --- | --- | --- | --- | --- | --- | --- | --- | --- | --- |
| 2,4,6-trimethyl-1,4-dihydro-pyridine-3,5-dicarboxylic acid 5-[2-(3,4-dichlorophenyl) sulfanethyl ester 3-[1,3-di-(4-morpholinyl)-2-propyl-1-ester [LAU-0901] | reduced | limited; also recorded: reduces | reduces microglia activation | dramatically reduced | 80% | increased | counteract neuronal hyper-excitability | reduced seizure severity | low puncta phospho-Lyn | increased in the vehicle-treated compared to the LAU-0901-treated group |  |
| CC(C)Cc1ccc([C@@H](C)C(=O)NS(C)(=O)=O)cc1 [repertaxin] |  |  |  |  |  |  |  |  |  |  | higher in those mice treated with vehicle |
